The values below come from ChEMBL document CHEMBL5512652, “Mono-quinoxaline-induced DNA structural alteration leads to ZBP1/RIP3/MLKL-driven necroptosis in cancer cells” (Eur J Med Chem, 2024).

Experiment [1] has as its system HCT-116. Kind of experiment: Induction of apoptosis in human HCT-116 cells assessed as early apoptotic cells at 2 uM incubated for 24 hrs by FITC/Annexin V based FACS analysis (reference value: 5.07%). Format: functional.
Experiment [2] has as its system HeLa. Put plainly: Induction of mitochondrial dysfunction in human HeLa cells assessed as clumping of mitochondria incubated for 24 hrs by JC-1 staining based confocal microscopy imaging method. In kind it is functional, cell-based.
The test system of experiment [3] is HT-29. Put plainly: Induction of ROS generation in human HT-29 cells incubated for 24 hrs by H2DCFDA staining based flow cytometry analysis. Format: functional, cell-based. As to conditions: dose 3-8 µM. (In general: In flow cytometry, cells or beads pass a laser one at a time.)
The test system of experiment [4] is HCT-116. Kind of experiment: Induction of apoptosis in human HCT-116 cells assessed as late apoptotic cells at 2 uM incubated for 24 hrs by FITC/Annexin V based FACS analysis (reference value: 2.8%). Format: functional.
For experiment [5], the system named is HeLa. Kind of experiment: Induction of DNA damage in human HeLa cells assessed as strand break at 4 uM incubated for 24 hrs by comet assay. In kind it is functional, cell-based.
For experiment [6], the system named is HT-29. Kind of experiment: Induction of DNA damage in human HT-29 cells assessed as strand break at 6 uM incubated for 24 hrs by comet assay. Format: functional, cell-based.
In experiment [7] the test system is HeLa. Put plainly: Induction of apoptosis in human HeLa cells assessed as viable cells at 2 uM incubated for 24 hrs by FITC/Annexin V based FACS analysis (reference value: 91%). In kind it is functional. As to conditions: read-out: Activity.
The subject of experiment [8] is HeLa. Put plainly: Induction of cell death in human HeLa cells assessed as increase in ZBP1 expression at 6 uM incubated for 24 hrs by immunofluorescence analysis. Format: functional, cell-based.
In the next experiment the test system is Calf thymus DNA. Kind of experiment: Displacement of Ethidium bromide from calf thymus DNA assessed as quenching constant value (Ksv). The conditions noted are these: Bos taurus. Format: nucleic-acid assay.
In a further experiment the test system is DNA. Put plainly: Induction of pBR322 plasmid DNA (unknown origin) conformational change at 2.5:1 compound:DNA ratio incubated for 4 hrs by EtBr staining based agarose gel mobility shift assay. In kind it is nucleic-acid assay.
Experiment [9] relates to HT-29. Kind of experiment: Induction of apoptosis in human HT-29 cells assessed as increase in cleaved caspase-3 expression at 3 to 6 uM incubated for 24 hrs by immunoblotting analysis. In kind it is functional, cell-based. As to conditions: dose 3-6 µM. For orientation: Immunoblotting shows a protein as a band on a membrane.
The next experiment has as its system AT rich DNA. Put plainly: Binding affinity to DNA (AT)6 (unknown origin). In kind it is nucleic-acid assay.

Active and inactive are the calls of the source. The rule behind the calls is not given here.

Regarding `CN(C)CCCNc1nc2cc([N+](=O)[O-])ccc2nc1NCc1ccc(-c2ccccc2)cc1`, the Activity with HCT-116 [1] is 5.36%; with HT-29 [3], “Dose-Dependent Effect”; in the experiment on HCT-116 [4], 14.8%; in the experiment on DNA, 100%. Moreover, the outcome in the experiment with HeLa [2], in the experiment on HeLa [5], in the experiment on HT-29 [6], with HeLa [8], in the experiment with HT-29 [9] and in the experiment with AT rich DNA was Active. Further, in the experiment on HeLa [7], the viability at 2 µM turned out to be 74.1%. In the experiment with Calf thymus DNA, the KSV is 4.5 10^4/M.
